Literature values in US9034354B2, “Bacteriostatic and anti-collagenolytic dental materials through the incorporation of polyacrylic acid modified CuI nanoparticles” (MUSC Foundation for Research Development, priority 2012, dated 2015).

Tested on: Streptococcus mutans
Conditions: discs of composite resin containing MDPB versus discs without MDPB, in the presence of Streptococcus mutans

## C=C(C)C(=O)OCCCCCCCCCCCC[n+]1ccccc1.[Br-] [MDPB, 12-methacryloyloxydodecylpyridinium bromide]
  numbers of bacteria recovered from the discs reduced by: 97%
